Key:
[1] = test system: Dendritic cells + T cells + CD3/CD28 beads (IL-2 production); test: CRS assay: IL2 ELISA of supernatant from dendritic cells + T cells + CD3/CD28 beads; type: cell-based; conditions: human PBMC-derived dendritic cells, 1 h compound pre-incubation, T cells with CD3/CD28 beads overnight; IL-2 in supernatant
Description: • 1. Human PBMC cells (PPA Research Group, Cat No. 15-00021) • 2. RPMI media 10% FBS • 3. GMCSF (Peprotech, Cat No. 300-03) and IL4 (Peprotech Cat No. 200-04) • 4. White clear bottom 96 well plates (Fisher, Cat No. 07-200-587, Corning #3903) • 5. Human IL-2 DuoSet ELISA (R&D Systems, Cat No. DY202) • 6. Human IL-6 DuoSet ELISA (R&D Systems, Cat No. DY206) • 7. Cell Titer Glo reagent (Promega, Cat No. G7573) • 8. Dynabeads Human T-Activator CD3/CD28 (Fisher, Cat No. 111.61D) • 9. Anti-human CD3 (BD Biosciences, Cat No. 555336) • 10. CD28, Clone CD28.2 (Beckman Coulter Inc. Cat No. IM1376) • 11. Recombinant Human IL-2 Protein (R&D Systems, Cat No. 202-IL-500)
Transfer human PBMC cells (400 million) obtained from the vendor into three T-175 flasks containing 16 ml RPMI media (10% FBS) and incubate for 2 h at 37° C. After 2 h, remove floating PBL and rinse cell twice with 10 ml of media. Save PBL and media for T cell expansion. Add 16 ml of fresh RPMI media (10% FBS) containing GMCSF (100 ng/ml) and IL4 (20 ng/ml) and keep the flask in 37° C. incubator. After 3 days, add fresh GMCSF (100 ng/ml) and IL4 (20 ng/ml) to the flask and continue the incubation.
• 1. […]
• 1. […] To the remaining 40 μl/well of the cell culture plate add 25 μl of Cell Titer Glo reagent, incubate for 1-2 minutes on a shaker and read the plate for luminescence intensity to determine the compound cytotoxicity. […]

[2] = test system: Dendritic cells + T cells + CD3/CD28 beads (IL-6 production); test: CRS assay: IL6 ELISA of supernatant from dendritic cells + T cells + CD3/CD28 beads; type: cell-based; conditions: human PBMC-derived dendritic cells, 1 h compound pre-incubation, T cells with CD3/CD28 beads overnight; IL-6 in supernatant
[3] = molecular target: Fc receptor signaling (degranulation); conditions: IgE- and IgG-mediated Fc receptor activation; cited from earlier work

IC50 [1]: 3.14 µM
IC50 [2]: 0.119 µM
Structure (SMILES): COc1cc(Nc2ncc(F)c(Nc3ccc4c(n3)NC(=O)C(C)(C)O4)n2)cc(OC)c1OC [Compound R406, 6-((5-fluoro-2-((3,4,5-trimethoxyphenyl)amino)pyrimidin-4-yl)amino)-2,2-dimethyl-2H-pyrido[3,2-b][1,4]oxazin-3(4H)-one]
EC50 [3]: 0.056 to 0.064 µM
